Experimental findings from ChEMBL document CHEMBL1129025, “Molecular basis of peripheral vs central benzodiazepine receptor selectivity in a new class of peripheral benzodiazepine receptor ligands related to alpidem” (J Med Chem, 1996) are described below.

The target of test [1] is T1, Translocator protein (Rattus norvegicus, UniProt P16257). Put plainly: Binding affinity against peripheral benzodiazepine receptor( PBR).
Test [2] has as its target T1, Translocator protein. Put plainly: Displacement of [3H]Ro-5-4864 from rat kidney peripheral benzodiazepine receptor. (Displacement assays read how much labelled ligand stays bound in the presence of the test substance.)
The target of test [3] is T1, Translocator protein. Put plainly: Displacement of [3H]Ro-5-4864 from rat cerebral cortex peripheral benzodiazepine receptor. The format is tissue-based.
In test [4] the target is T1, Translocator protein. Put plainly: Displacement of [3H]PK11195 from rat kidney peripheral benzodiazepine receptor (type 2).
Test [5] concerns the target T1, Translocator protein. Put plainly: Displacement of [3H]PK11195 from rat cerebral cortex peripheral benzodiazepine receptor (type 2). The format is tissue-based.
The target in test [6] is T1, Translocator protein. Put plainly: Displacement of [3H]PK11195 from rat cerebral cortex peripheral benzodiazepine receptor (type 1). The format is tissue-based.
Test [7] concerns the target T1, Translocator protein. Put plainly: Displacement of [3H]PK11195 from rat kidney peripheral benzodiazepine receptor (type 1).
The target in test [8] is GABA-A receptor; anion channel. Put plainly: Binding affinity against central benzodiazepine receptor(CBR). The format is protein-complex assay.
For test [9], the target named is T1, Translocator protein. Put plainly: Displacement of [3H]-PK11195 from rat kidney peripheral benzodiazepine receptor (type 2).

SMILES strings stand for the structures. A value given as a limit tells only on which side of the number the result lay.

T1 sequence (P16257 whole entry, looked up): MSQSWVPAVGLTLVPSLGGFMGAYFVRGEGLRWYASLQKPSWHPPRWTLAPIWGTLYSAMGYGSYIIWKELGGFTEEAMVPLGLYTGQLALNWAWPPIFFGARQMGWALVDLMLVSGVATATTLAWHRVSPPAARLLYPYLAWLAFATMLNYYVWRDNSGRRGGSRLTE

The term IC50 denotes the concentration needed to halve the response being measured. A high value points to lower potency. For the molecule `CN(Cc1ccccc1)C(=O)/C=C1\c2nc3ccccc3cc2C(=O)N1c1ccc(Cl)cc1`, in [1], the IC50 is greater than 1 µM.
Take `CCCN(CCC)C(=O)/C=C1\c2nc3ccccc3cc2C(=O)N1c1ccc(Cl)cc1`: the IC50 in test [2] amounted to 0.15 µM; in [3], 0.12 µM; in test [4], 0.16 µM; in [5], 0.21 µM; in test [1], 0.04 µM; in [6], 0.0049 µM. Further, the IC50 in [7] was 0.0027 µM; in [8], greater than 1 µM.
On to `CCCCCCN(CCCCCC)C(=O)CC1c2ncccc2C(=O)N1c1ccc(Cl)cc1` (centres undefined), for which the figures for the IC50 in test [1] and in test [8] were 1.6 µM and greater than 1 µM, respectively.
Turning to `CN(C(=O)/C=C1\c2nc3ccccc3cc2C(=O)N1c1ccc(Cl)cc1)c1ccc(Cl)cc1`, the IC50 stood at 0.002 µM in [2]; 0.0045 µM in [3]; 0.61 µM in test [5]; 0.032 µM in test [1]; 0.14 µM in test [9]; 0.0024 µM in test [6]. Moreover, the IC50 in test [7] is 0.0011 µM.
Regarding `COc1ccc(N(C)C(=O)/C=C2\c3nc4ccccc4cc3C(=O)N2c2ccc(Cl)cc2)cc1`, the IC50 stood at 0.0017 µM in test [2]; 0.0023 µM in test [3]; 0.014 µM in test [4]; 0.32 µM in test [5]; 0.0019 µM in test [1]; 0.0098 µM in [6]. This molecule also registered an IC50 in [7] of 0.0007 µM.
Turning to `CCCN(CCC)C(=O)/C=C1\c2ncccc2C(=O)N1c1ccc(Cl)cc1`, the results for the IC50 in test [1] and in [8] were 0.29 µM and greater than 1 µM, respectively.
Taken in the same sequence, the figures for `CCCCCCN(CCCCCC)C(=O)/C=C1\c2ncccc2C(=O)N1c1ccc(Cl)cc1` were 33 µM and greater than 1 µM.
Turning to `CCCN(CCC)C(=O)C=C1c2nc3ccccc3cc2C(=O)N1c1ccc(Cl)cc1`, the IC50 in test [1] was greater than 1 µM.
Turning to `CCN(Cc1ccccc1)C(=O)/C=C1\c2nc3ccccc3cc2C(=O)N1c1ccc(Cl)cc1`, the IC50 in test [1] was greater than 1 µM.
Consider `CCCCCCN(CCCCCC)C(=O)/C=C1\c2nc3ccccc3cc2C(=O)N1c1ccc(Cl)cc1`, for which the IC50 is 0.15 µM in test [1] and greater than 1 µM in test [8].
Taken in the same sequence, the figures for `CCCCCCN(CCCCCC)C(=O)CC1c2nc3ccccc3cc2C(=O)N1c1ccc(Cl)cc1` (centres undefined) were greater than 1 µM and greater than 1 µM.
For `CCCN(CCC)C(=O)CC1c2nc3ccccc3cc2C(=O)N1c1ccc(Cl)cc1` (centres undefined), the IC50 in test [1] and in test [8] was greater than 1 µM in each case.
In the case of `O=C1c2cccnc2CN1c1ccc(Cl)cc1`, the IC50 in test [1] and in [8] was greater than 1 µM throughout.
With `CCCN(CCC)C(=O)CC1c2ncccc2C(=O)N1c1ccc(Cl)cc1` (centres undefined), the IC50 in test [1] was greater than 1 µM; in test [8], 0.86 µM.
For `CCCN(CCC)C(=O)Cc1c(-c2ccc(Cl)cc2)nc2ccc(Cl)cn12` [ALPIDEM], the IC50 is 0.007 µM in [1] and 0.028 µM in [8].
Turning to `CN1CCN(C(=O)OC2c3nccnc3C(=O)N2c2ccc(Cl)cn2)CC1` (centres undefined) [ZOPICLONE], in [8], the IC50 worked out at 0.029 µM.
